Source: patent US20180110796A1, “COMPOSITIONS AND METHODS FOR THE TREATMENT OF HBV INFECTION” (Spring Bank Pharmaceuticals, Inc., priority 2015, published 2018)

Key:
[1] = Tolerability / drug safety of oral Formula (IIa) in chronic WHV carrier woodchucks (Example 2); type: in vivo, woodchuck (Marmota monax)
Description: All woodchucks used in this study were born in captivity and infected at 3 days of age with the cWHV7P2a inoculum containing WHV strain 7-11 (WHV7). cWHV7P2a has the same biological and virological characteristics as the parent cWHV7P2 inoculum as both were derived from cWHV7P1. Chronically infected animals were confirmed positive for serum WHV DNA and WHV surface antigen (WHsAg) and had undetectable antibodies against WHsAg (anti-WHs) at approximately 1 year post-infection. Absence of liver tumors in woodchucks with low gamma-glutamyl transferase (GGT) was confirmed by ultrasonography. Chronic WHV carrier woodchucks were assigned and stratified by gender, body weight, and by pretreatment serum markers (WHV DNA and WHsAg loads and serum GGT and sorbitol-dehydrogenase (SDH) levels) into two groups (n=5 each). Woodchucks were treated daily, orally with either a low (15 mg/kg) or high dose (30 mg/kg) of Formula (IIa) for 12 weeks. For select assays, blood and liver samples from five age-matched chronic WHV carrier woodchucks were included for comparison of basal expression levels of immune response genes in untreated animals with pretreated levels in Formula (IIa) treated animals.
Various measurements (body weight, body temperature, clinical chemistry, and hematology) were obtained weekly to monthly throughout the study to monitor drug safety. Serum and hepatic WHV parameters, host immune response parameters, and drug safety parameters were compared to the values at pretreatment and between both dose groups using unpaired Student's t-test with equal variance. P values of <0.05 were considered statistically significant.

[2] = test system: woodchuck hepatitis virus (WHV); experiment: Formula (IIa) in combination with entecavir, sequential oral treatment of chronic WHV carrier woodchucks (Example 3); type: in vivo, woodchuck (Marmota monax)
Description: Ten (10) woodchucks chronically infected with WHV were used. Woodchucks were born in captivity and were inoculated at 3 days of age with cWHV7P2a inoculum, then reared until 11 months of age. Prior to the study, woodchucks were confirmed as established chronic carriers of WHV based on established criteria including the presence of WHV surface antigen (WHsAg), antibody against […], and WHV DNA. Woodchucks used in the study were of both gender and approximately between 12 and 14 months of age at the start of the study.
Two (2) groups of five (5) chronic WHV carrier woodchucks each were used in the study:
Group 1 was orally treated for 4 weeks with ETV at a daily dose of 0.5 mg/kg starting at T0, followed by add-on treatment with Formula (IIa) for 12 weeks at a daily dose of 30 mg/kg. Woodchucks were then followed for a total of 24 weeks.
Group 2 was orally treated for 12 weeks with Formula (IIa) at a daily dose of 30 mg/kg starting at T0, followed by add-on treatment with ETV for 4 weeks at a daily dose of 0.5 mg/kg. Woodchucks were then also followed for a total of 24 weeks.
Formula (IIa) was supplied as a pre-weighed powder in individual containers. An amount of powder sufficient to treat all 10 pre-weighed woodchucks per day with Formula (IIa) was mixed directly with woodchuck diet powder (Dyets Inc., Bethlehem, Pa.) and then suspended with HPLC water. The drug was orally administered with a dose syringe at T0 (Group 2) or after 4 weeks of treatment with ETV (Group 1), and thereafter every day for 12 weeks (84 days). Drug dosing was then followed by an extra 2 ml of woodchuck liquid diet to ensure complete consumption of Formula (IIa).
ETV was provided as powder. An amount of powder sufficient to treat all 10 woodchucks per day was suspended in isotonic saline at a concentration of 0.5 mg/ml. A volume (ml) of drug solution equivalent to the body weight (kg) of an individual woodchuck was then mixed with approximately 3-5 ml of woodchuck liquid diet and administered orally with a dose syringe at T0 (Group 1) or after 12 weeks of treatment with Formula (IIa) (Group 2), and thereafter every day for 4 weeks (28 days). ETV dosing was followed by an extra 2 ml of woodchuck liquid diet to ensure complete consumption of drug.
Prior to administration of Formula (IIa) or ETV at T0, then weekly until the end of the study at week 24, whole blood samples were drawn from each woodchuck under ketamine/xylazine anesthesia for determinations of serum WHV DNA, WHsAg, and anti-WHs (see Summary Table below). […] Blood samples were kept at room temperature following collection and serum harvested upon observation of clot retraction. Harvested serum was transferred to microcentrifuge tubes and stored frozen at −70° C. until use.
The induction of an innate immune response in peripheral blood and liver of woodchucks by combination treatment with Formula (IIa) and ETV were determined via real time PCR-based assays. Whole blood samples were obtained prior to the start of treatment with Formula (IIa) at T0, and then at weeks 4, 10, 16, 20, and 24 (Group 1) or at weeks 6, 12, 16, 20, and 24 (Group 2) (see Summary Table below). Whole blood was drawn into PAXgene blood tubes at the indicated time points and stored at −70° C. until use. Total RNA was isolated from whole blood and treated with DNase using the PAXgene Blood miRNA Kit (Quiagen). This was followed by reverse transcription of mRNA into cDNA and amplification of host immune response genes by real time PCR. Woodchuck cytokine and interferon-stimulated genes included IFN-α, IFN-β, interleukin 6 (IL-6), 2′-5′-oligoadenylate synthetase 1 (OAS-1), interferon-induced 17 kDa protein (ISG15), and interferon gamma-induced protein 10 (IP-10or CXCL10). Woodchuck 18S rRNA expression was used to normalize target gene expression. […]

[3] = test system: HBV; experiment: Dose-ranging study in the HBV transgenic mouse model; type: in vivo; settings: once-daily oral 1 to 100 mg/kg/day for 14 days
[4] = 15 and 30 mg/kg daily oral, 12 weeks
[5] = 30 mg/kg daily oral, week 12, Group 2 before add-on ETV

COC1[C@@H](OP(=O)(OC[C@H]2O[C@@H](n3cnc4c(N)ncnc43)C[C@H]2O)SCOC(=O)OC(C)C)[C@@H](CO)O[C@H]1n1ccc(=O)[nH]c1=O (some centres unmarked) [Formula (IIa)]
mortality during the study [1, 4]: no mortality
tolerability (gross observations, body weights, body temperatures, hematology, clinical chemistry) [1, 4]: well-tolerated
serum levels of ALT and AST during and following treatment ([1]; both dose groups): essentially remained unchanged or declined slightly
serum SDH levels during administration ([1]; especially initial 4-8 weeks, more pronounced in the high dose group): trend towards elevated
decline of serum WHsAg until the end of Formula (IIa) treatment [2, 5]: 1.49 log 10
reduction of mean serum WHV DNA from pretreatment level at the end of Formula (IIa) treatment [2, 5]: 3.54 log 10
weeks per approximately 1 log10 decline of serum WHV DNA ([2]; Formula (IIa) 30 mg/kg, initial 6 weeks of treatment, Group 2): ~3 weeks
liver HBV DNA [3]: significant reduction
